Measurements as given in ChEMBL document CHEMBL1155559, “Hepatoprotective diastereomeric lignans from Saururus chinensis herbs” (J Nat Prod, 2000).

The compounds below were run on Hepatocyte (assay: Hepatoprotective activity in Wistar rat CCL4-damaged hepatocyte assessed as blockade of glutamic pyruvic transaminase release at 100 uM relative to control).
Type: functional, cell-based

Compared with `C[C@@H]1[C@H]2c3cc4c(cc3O[C@@]35OCOC3=CC(=O)[C@@H](C[C@H]1C)[C@@H]25)OCO4`, `C[C@@H]1[C@H]2c3cc4c(cc3O[C@@]35OCOC3=CC(=O)[C@H](C[C@H]1C)[C@H]25)OCO4` [SAUCHINONE A] is higher in Activity: 75.9% for the first, 78.2% for the second.

Compared with `COc1cc(C2Oc3cc([C@H]4Oc5cc(O)cc(O)c5C(=O)[C@@H]4O)ccc3OC2CO)ccc1O` (some centres undefined) [SILIBININ], `C[C@@H]1[C@H]2c3cc4c(cc3O[C@@]35OCOC3=CC(=O)[C@H](C[C@H]1C)[C@@H]25)OCO4` [SAUCHINONE] is lower in Activity: 76.6% for the first, 70.1% for the second.
